{
  "source": "paper PMC12404492",
  "about": "“The crystal structure of Thermus thermophilus UMP kinase complexed with a phosphoryl group acceptor and donor” (PLOS One, 2025)",
  "molecular_target": "T1, ttUMPK (UMP kinase of Thermus thermophilus HB8) (Thermus thermophilus, UniProt P43891)",
  "T1 construct": "gene pyrH; full-length gene in pET-11a (NdeI/BamHI), no tag mentioned; expressed in E. coli BL21(DE3), heat-treated; homohexamer by size exclusion",
  "T1 sequence (P43891 whole entry)": "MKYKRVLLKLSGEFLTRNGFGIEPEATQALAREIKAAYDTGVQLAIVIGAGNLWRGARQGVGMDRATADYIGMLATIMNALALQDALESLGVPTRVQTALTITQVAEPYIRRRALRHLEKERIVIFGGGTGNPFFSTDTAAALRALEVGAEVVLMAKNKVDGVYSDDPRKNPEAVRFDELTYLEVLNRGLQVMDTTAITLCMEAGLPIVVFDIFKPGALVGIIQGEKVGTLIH",
  "assay": "X-ray crystal structure, […] Å (second data set, PDB code not given)",
  "type": "binding",
  "settings": "active site, most chains",
  "data": [
    {"smiles": "O=c1ccn([C@@H]2O[C@H](COP(=O)(O)O)[C@@H](O)[C@H]2O)c(=O)[nH]1", "note": "[UMP]", "values": [
      {"measurement": "X-ray crystal structure, 2.5 Å (second data set, PDB code not given)", "value": "most of the bound uridine nucleotides in the active site are UMP, not UDP"}
    ]}
  ]
}
